Experimental data: PubChem BioAssay (NCI)
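These data come from cells grown in 96-well plates and exposed to compound for 48 hours at five concentrations. GI50: concentration for 50% inhibition of growth. TGI: total growth inhibition.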

Columns and labels:
Assay in all cases: NCI tumour cell line growth inhibition, 48 h
HCT-116 colon = system: HCT-116 colon
HCT-15 colon = system: HCT-15 colon
HOP-62 NSCLC = system: HOP-62 NSCLC
KM12 colon = system: KM12 colon
MOLT-4 leukemia = system: MOLT-4 leukemia
NCI-H522 lung = system: NCI-H522 lung
SK-MEL-5 melanoma = system: SK-MEL-5 melanoma
UACC-257 melanoma = system: UACC-257 melanoma
MDA-MB-231 breast = system: MDA-MB-231 breast
PC-3 prostate = system: PC-3 prostate

| Compound | TGI (HCT-116 colon) [µM] | TGI (HCT-15 colon) [µM] | TGI (HOP-62 NSCLC) [µM] | TGI (KM12 colon) [µM] | TGI (MOLT-4 leukemia) [µM] | TGI (NCI-H522 lung) [µM] | TGI (SK-MEL-5 melanoma) [µM] | TGI (UACC-257 melanoma) [µM] | GI50 (HCT-116 colon) [µM] | GI50 (HCT-15 colon) [µM] | GI50 (HOP-62 NSCLC) [µM] | GI50 (KM12 colon) [µM] | GI50 (MDA-MB-231 breast) [µM] | TGI (MDA-MB-231 breast) [µM] | GI50 (MOLT-4 leukemia) [µM] | GI50 (PC-3 prostate) [µM] | TGI (PC-3 prostate) [µM] | GI50 (SK-MEL-5 melanoma) [µM] | GI50 (UACC-257 melanoma) [µM] | GI50 (NCI-H522 lung) [µM] |
| --- | --- | --- | --- | --- | --- | --- | --- | --- | --- | --- | --- | --- | --- | --- | --- | --- | --- | --- | --- | --- |
| NC(=O)c1ncn(C2OC(CO)C(O)C2O)c1O (stereo unspecified) | > 100 | > 100 | > 100 | > 100 | > 100 | – | – | – | – | – | – | – | – | – | – | – | – | – | – | – |
| Cc1[nH]c2cc([N+](=O)[O-])ccc2c1[N+](=O)[O-] | – | – | 32.8 | 67.6 | 71.4 | 38.4 | 27.6 | 43.9 | – | – | – | – | – | – | – | – | – | – | – | – |
| Cc1ccc(S(=O)(=O)C2CC2(Cl)Cl)cc1 (stereo unspecified) | 44.7 | 55.4 | – | > 100 | 42.1 | 26.7 | – | 44 | – | – | – | – | – | – | – | – | – | – | – | – |
| O=C(C(=CN1CCN(C(=O)c2ccco2)C1=S)C(=O)c1ccccc1)c1ccccc1 | 17 | 20.7 | 44.2 | 11.5 | > 50 | – | 19.5 | 21.4 | 7.93 | 2.63 | 15.9 | 2.31 | 7.41 | 20.1 | 15.2 | 23.6 | > 50 | 10.9 | 11.7 | – |
| CCCCOC(=O)NC(=O)c1cn(CCCOC(=O)CCCCCCCCC(=O)OCCCn2cc(C(=O)NC(=O)OCCCC)c(=O)n(C)c2=O)c(=O)n(C)c1=O | > 100 | > 100 | > 100 | > 100 | > 100 | > 100 | > 100 | > 100 | – | – | – | – | – | – | – | – | – | – | – | – |
| COC(=O)[C@@]12C3=NO[C@]1(C(=O)OC)C(O[Si](C)(C)C(C)(C)C)[C@@H](OC(C)=O)[C@@H](OC(C)=O)[C@@H]2[C@@H](OCc1ccccc1)CC3 (stereo partly specified) | > 100 | > 100 | > 100 | > 100 | > 100 | > 100 | > 100 | > 100 | – | – | – | – | – | – | – | – | – | – | – | – |
| O=C(Oc1c(Cl)cc(Cl)cc1Cl)c1ccccc1Nc1ccnc(C(F)(F)F)c1 | 4.28 | 10.6 | 8.8 | 32.5 | – | > 100 | > 100 | 57.3 | 1.72 | 2.7 | 2.66 | 4.11 | 3.25 | 18.9 | – | 15 | > 100 | 3.07 | 12.2 | 5.7 |
| COc1ccc(/C=C/c2ccnc3ccccc23)cc1OC | 25.1 | 30.4 | 28.5 | 30.8 | 45.1 | 23.2 | 28 | 37.6 | – | – | – | – | – | – | – | – | 36.4 | – | – | – |
| CC(=O)C1C(=O)C(=O)N(CCN2C(=O)C(=O)C(C(C)=O)C2=O)C1=O (stereo unspecified) | > 100 | > 100 | > 100 | > 100 | – | > 100 | > 100 | > 100 | – | – | – | – | – | – | – | – | – | – | – | – |
| Fc1ccc(Nc2nc(Nc3ccc(-c4nc5ccccc5[nH]4)cc3)c3cn[nH]c3n2)cc1 | 3.58 | 4.78 | 5.02 | 3.48 | 5.63 | 4.02 | 21.9 | 4.37 | 1.75 | 1.76 | 2.04 | 1.64 | – | – | 2.55 | 2.02 | 4.53 | 9.94 | 2 | 1.61 |
| CC/C=C\C[C@H]1C/C=C2/C(=O)C(Cl)=C[C@@H]2C/C=C\CCCC(=O)O1 | 0.859 | 0.72 | 1.31 | 1.07 | 2.2 | 0.556 | 0.759 | – | 0.205 | 0.109 | 0.49 | 0.403 | 0.733 | 4.61 | 0.329 | 0.346 | 0.986 | 0.379 | – | 0.156 |
| O=C(NCCNCCO)c1ccc(Nc2nc3ccccc3c3occc23)cc1 | 23.3 | 31.2 | 24.9 | 23.8 | 15.1 | 35.4 | 35.2 | – | 10.1 | 16.7 | 12.2 | 8.99 | 3.12 | 16.2 | 4.77 | 4.15 | 18.3 | 18.4 | – | 14.3 |
| C=CCSC(C)=O | > 100 | > 100 | > 100 | > 100 | – | > 100 | > 100 | – | – | – | – | – | – | > 100 | – | – | > 100 | – | – | – |
| CCc1c(C)c2cc(-n3c(-c4ccc(OC)cc4)csc3=N)c(O)c(C)c2oc1=O | 2.99 | 3.95 | 8.53 | 8.37 | > 100 | 2.46 | – | 14.2 | 1.23 | 1.21 | 1.67 | 1.32 | 1.52 | 6.39 | 1.54 | 0.752 | > 100 | – | 3.15 | 0.646 |
| N#CC1=C(N)OC2=C(CCOc3c2ccc2ccccc32)C1c1ccc(Br)cc1 (stereo unspecified) | 47.7 | > 100 | > 100 | 34.3 | 49 | > 100 | – | – | 15.1 | 31 | 56.6 | 14.6 | – | – | 11.3 | 19.9 | 53.6 | – | – | > 100 |
| Cc1ccc(Nc2nc(-c3ccc(-c4ccc([N+](=O)[O-])cc4)o3)cs2)cc1 | > 100 | > 100 | > 100 | > 100 | > 100 | – | – | 90 | – | – | – | – | – | – | – | – | – | – | – | – |
| Cc1cc(Br)ccc1N=Nc1c(C)nn(-c2ccccc2)c1-c1ccccc1 | > 100 | > 100 | > 100 | > 100 | > 100 | > 100 | > 100 | > 100 | – | – | – | – | – | – | – | – | – | – | – | – |
| O=C1[C@@H]2C(c3ccccc3[N+](=O)[O-])=NO[C@@H]2C(=O)N1c1ccc(Cc2ccc(N3C(=O)[C@H]4C(c5ccccc5[N+](=O)[O-])=NO[C@H]4C3=O)cc2)cc1 | > 100 | > 100 | > 100 | > 100 | > 100 | > 100 | > 100 | > 100 | – | – | – | – | – | – | – | – | – | – | – | – |
